Source: US4393228A, “Epoxysuccinic acid derivatives” (Taisho Pharmaceutical Co., Ltd., priority 1977, dated 1983)

Target: T1, papain (Carica papaya, UniProt P00784)
T1 construct: purchased Sigma Chem. Co
T1 sequence (P00784 134-345): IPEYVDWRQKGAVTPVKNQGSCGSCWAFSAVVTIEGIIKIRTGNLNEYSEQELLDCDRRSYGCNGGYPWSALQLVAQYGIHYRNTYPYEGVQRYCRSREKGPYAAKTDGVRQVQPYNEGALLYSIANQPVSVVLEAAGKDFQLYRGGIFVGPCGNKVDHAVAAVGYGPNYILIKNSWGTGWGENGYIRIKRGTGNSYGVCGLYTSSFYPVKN
Assay: Papain inhibitory activity (milk casein digestion)
Format: biochemical
Conditions: papain 80 μg/ml 0.5 ml, cysteine, pH 6.8, 1% milk casein, 40° C., 10 minutes
Description: Papain inhibitory activity of the compounds of this invention was assayed as follows: To 0.5 ml of a solution of papain (80 μg/ml, Sigma Chem. Co., 2x cry.), were added 0.25 ml of 40 mM cysteine dissolved in 20 mM disodium ethylenediamine tetraacetic acid solution adjusted pH to 6.8 with sodium hydroxide and 0.25 ml of 33 mM phosphate buffer (pH 6.8) with or without inhibitor. After incubation at 40° C. for 15 minutes, the resulting mixture was added to 5 ml of 1% milk casein solution in the same buffer as described above, and further incubated at 40° C. for 10 minutes. Then the mixture was mixed with 5 ml of 0.44 M trichloroacetic acid solution and followed by filtration with a sheet of Toyo filter paper No. 4. The extinction of the filtrate was read at 280 nm. The percent inhibition was calculated from the formula, 100 x (B-A)/B; wherein B stands for the absorbance without inhibitor and A for the absorbance with inhibitor. The compound Nos. in Table 1 are as defined in Examples as described hereinafter.

`Cc1cc(C)cc(COC(=O)[C@@H]2O[C@H]2C(=O)O)c1` (relative stereo) [EP-94, 3',5'-dimethylbenzyl potassium epoxysuccinate] was tested, and the “ID50 (amount of inhibitor for 50% inhibition)” value was 0.27 γ.
`Cc1cc(C)c(COC(=O)[C@@H]2O[C@H]2C(=O)OCc2c(C)cc(C)cc2C)c(C)c1` (relative stereo) [EP-95, di-2',4',6'-trimethylbenzyl epoxysuccinate] was tested, and the “ID50 (amount of inhibitor for 50% inhibition)” value was 4.20 γ.
For `Cc1cc(C)c(COC(=O)[C@@H]2O[C@H]2C(=O)O)c(C)c1` (relative stereo) [EP-96, 2',4',6'-trimethylbenzyl potassium epoxysuccinate], the “ID50 (amount of inhibitor for 50% inhibition)” value was 0.37 γ.
`Cc1cccc(COC(=O)[C@@H]2O[C@H]2C(=O)OCc2cccc(C)c2Br)c1Br` (relative stereo) [EP-97, di-2'-bromo-3'-methylbenzyl epoxysuccinate] was tested, and the “ID50 (amount of inhibitor for 50% inhibition)” value was 3.20 γ.
In the case of `Cc1cccc(COC(=O)[C@@H]2O[C@H]2C(=O)O)c1Br` (relative stereo) [EP-98, 2'-bromo-3'-methylbenzyl potassium epoxysuccinate], the “ID50 (amount of inhibitor for 50% inhibition)” value is reported as 0.32 γ.
With `O=C(OCc1cccc(C(F)(F)F)c1)[C@@H]1O[C@H]1C(=O)OCc1cccc(C(F)(F)F)c1` (relative stereo) [EP-99, di-3'-trifluoromethylbenzyl epoxysuccinate] the “ID50 (amount of inhibitor for 50% inhibition)” value was 0.50 γ.
With `O=C(O)[C@@H]1O[C@H]1C(=O)OCc1cccc(C(F)(F)F)c1` (relative stereo) [EP-100, 3'-trifluoromethylbenzyl potassium epoxysuccinate] the “ID50 (amount of inhibitor for 50% inhibition)” value was 0.10 γ.
`COc1ccc(COC(=O)[C@@H]2O[C@H]2C(=O)OCc2ccc(OC)cc2)cc1` (relative stereo) [EP-101, di-p-methoxybenzyl epoxysuccinate] was tested, and the “ID50 (amount of inhibitor for 50% inhibition)” value was 1.51 γ.
For `O=C(OCc1ccc2c(c1)OCO2)[C@@H]1O[C@H]1C(=O)OCc1ccc2c(c1)OCO2` (relative stereo) [EP-103, di-methylene-3',4'-dioxybenzyl epoxysuccinate], the “ID50 (amount of inhibitor for 50% inhibition)” value was 1.06 γ.
`O=C(O)[C@@H]1O[C@H]1C(=O)OCc1ccc2c(c1)OCO2` (relative stereo) [EP-104, methylene-3',4'-dioxybenzyl potassium epoxysuccinate] was tested, and the “ID50 (amount of inhibitor for 50% inhibition)” value was 0.36 γ.
`O=C(OCc1ccccc1I)[C@@H]1O[C@H]1C(=O)OCc1ccccc1I` (relative stereo) [EP-105, di-o-iodobenzyl epoxysuccinate] was tested, and the “ID50 (amount of inhibitor for 50% inhibition)” value was 0.40 γ.
With `O=C(O)[C@H]1O[C@@H]1C(=O)OCc1ccccc1I` (relative stereo) [EP-106, o-iodobenzyl potassium epoxysuccinate] the “ID50 (amount of inhibitor for 50% inhibition)” value was 0.14 γ.
With `O=C(OCc1ccccc1Cl)[C@@H]1O[C@H]1C(=O)OCc1ccccc1Cl` (relative stereo) [EP-107, di-o-chlorobenzyl epoxysuccinate] the “ID50 (amount of inhibitor for 50% inhibition)” value was 0.15 γ.
`O=C(O)[C@H]1O[C@@H]1C(=O)OCc1ccccc1Cl` (relative stereo) [EP-108, o-chlorobenzyl potassium epoxysuccinate] was tested, and the “ID50 (amount of inhibitor for 50% inhibition)” value was 0.09 γ.
With `O=C(OCc1cccc(Cl)c1)[C@@H]1O[C@H]1C(=O)OCc1cccc(Cl)c1` (relative stereo) [EP-109, di-m-chlorobenzyl epoxysuccinate] the “ID50 (amount of inhibitor for 50% inhibition)” value was 0.50 γ.
With `O=C(O)[C@H]1O[C@@H]1C(=O)OCc1cccc(Cl)c1` (relative stereo) [EP-110, m-chlorobenzyl potassium epoxysuccinate] the “ID50 (amount of inhibitor for 50% inhibition)” value was 0.24 γ.
`O=C(OCc1ccc(I)cc1)[C@@H]1O[C@H]1C(=O)OCc1ccc(I)cc1` (relative stereo) [EP-111, di-p-iodobenzyl epoxysuccinate] was tested, and the “ID50 (amount of inhibitor for 50% inhibition)” value was 2.91 γ.
For `O=C(O)[C@H]1O[C@@H]1C(=O)OCc1ccc(I)cc1` (relative stereo) [EP-112, p-iodobenzyl potassium epoxysuccinate], the “ID50 (amount of inhibitor for 50% inhibition)” value was 0.32 γ.
In the case of `O=C(OCc1ccc(Br)cc1)[C@@H]1O[C@H]1C(=O)OCc1ccc(Br)cc1` (relative stereo) [EP-113, di-p-bromobenzyl epoxysuccinate], the “ID50 (amount of inhibitor for 50% inhibition)” value is reported as 0.99 γ.
With `O=C(O)[C@H]1O[C@@H]1C(=O)OCc1ccc(Br)cc1` (relative stereo) [EP-114, p-bromobenzyl potassium epoxysuccinate] the “ID50 (amount of inhibitor for 50% inhibition)” value was 0.26 γ.
In the case of `O=C(OCc1ccc(Cl)cc1)[C@@H]1O[C@H]1C(=O)OCc1ccc(Cl)cc1` (relative stereo) [EP-115, di-p-chlorobenzyl epoxysuccinate], the “ID50 (amount of inhibitor for 50% inhibition)” value is reported as 1.20 γ.
With `O=C(OCc1ccc(Cl)cc1Cl)[C@H]1O[C@@H]1C(=O)OCc1ccc(Cl)cc1Cl` (relative stereo) [EP-117, di-2',4'-dichlorobenzyl epoxysuccinate] the “ID50 (amount of inhibitor for 50% inhibition)” value was 2.55 γ.
For `O=C(O)[C@H]1O[C@@H]1C(=O)OCc1ccc(Cl)cc1Cl` (relative stereo) [EP-118, 2',4'-dichlorobenzyl potassium epoxysuccinate], the “ID50 (amount of inhibitor for 50% inhibition)” value was 0.11 γ.
For `O=C(OCc1ccc(I)cc1Br)[C@H]1O[C@@H]1C(=O)OCc1ccc(I)cc1Br` (relative stereo) [EP-119, di-2'-bromo-4'-iodobenzyl epoxysuccinate], the “ID50 (amount of inhibitor for 50% inhibition)” value was 3.00 γ.
In the case of `O=C(O)[C@H]1O[C@@H]1C(=O)OCc1ccc(I)cc1Br` (relative stereo) [EP-120, 2'-bromo-4'-iodobenzyl potassium epoxysuccinate], the “ID50 (amount of inhibitor for 50% inhibition)” value is reported as 0.40 γ.
`O=C(O)[C@H]1O[C@@H]1C(=O)OCc1cccc(F)c1` (relative stereo) [EP-122, m-fluorobenzyl potassium epoxysuccinate] was tested, and the “ID50 (amount of inhibitor for 50% inhibition)” value was 0.10 γ.
In the case of `O=C(OCc1ccccc1F)[C@H]1O[C@@H]1C(=O)OCc1ccccc1F` (relative stereo) [EP-123, di-o-fluorobenzyl epoxysuccinate], the “ID50 (amount of inhibitor for 50% inhibition)” value is reported as 0.30 γ.
In the case of `O=C(O)[C@H]1O[C@@H]1C(=O)OCc1ccccc1F` (relative stereo) [EP-124, o-fluorobenzyl potassium epoxysuccinate], the “ID50 (amount of inhibitor for 50% inhibition)” value is reported as 0.10 γ.
For `O=C(OCc1ccc(Br)c(Cl)c1)[C@H]1O[C@@H]1C(=O)OCc1ccc(Br)c(Cl)c1` (relative stereo) [EP-125, di-3'-chloro-4'-bromobenzyl epoxysuccinate], the “ID50 (amount of inhibitor for 50% inhibition)” value was 2.90 γ.
`O=C(O)[C@H]1O[C@@H]1C(=O)OCc1ccc(Br)c(Cl)c1` (relative stereo) [EP-126, 3'-chloro-4'-bromobenzyl potassium epoxysuccinate] was tested, and the “ID50 (amount of inhibitor for 50% inhibition)” value was 0.12 γ.
In the case of `O=C(OCc1cc(Cl)ccc1Cl)[C@H]1O[C@@H]1C(=O)OCc1cc(Cl)ccc1Cl` (relative stereo) [EP-127, di-2',5'-dichlorobenzyl epoxysuccinate], the “ID50 (amount of inhibitor for 50% inhibition)” value is reported as 2.00 γ.
`O=C(O)[C@H]1O[C@@H]1C(=O)OCc1cc(Cl)ccc1Cl` (relative stereo) [EP-128, 2',5'-dichlorobenzyl potassium epoxysuccinate] was tested, and the “ID50 (amount of inhibitor for 50% inhibition)” value was 0.11 γ.
In the case of `O=C(OCCc1ccccc1)[C@H]1O[C@@H]1C(=O)OCCc1ccccc1` (relative stereo) [EP-129, di-2'-phenylethyl epoxysuccinate], the “ID50 (amount of inhibitor for 50% inhibition)” value is reported as 0.78 γ.
For `O=C(O)[C@H]1O[C@@H]1C(=O)OCCc1ccccc1` (relative stereo) [EP-130, 2'-phenylethyl potassium epoxysuccinate], the “ID50 (amount of inhibitor for 50% inhibition)” value was 0.10 γ.
For `O=C(O)[C@H]1O[C@@H]1C(=O)OCCCc1ccccc1` (relative stereo) [EP-132, 3'-phenylpropyl potassium epoxysuccinate], the “ID50 (amount of inhibitor for 50% inhibition)” value was 0.17 γ.
In the case of `O=C(OCC=Cc1ccccc1)[C@H]1O[C@@H]1C(=O)OCC=Cc1ccccc1` (relative stereo) [EP-133, di-3'-phenyl-2'-propenyl epoxysuccinate], the “ID50 (amount of inhibitor for 50% inhibition)” value is reported as 2.81 γ.
In the case of `O=C(O)[C@H]1O[C@@H]1C(=O)OCC=Cc1ccccc1` (relative stereo) [EP-134, 3'-phenyl-2'-propenyl potassium epoxysuccinate], the “ID50 (amount of inhibitor for 50% inhibition)” value is reported as 0.71 γ.
In the case of `COC(=O)[C@H]1O[C@@H]1C(=O)O` (relative stereo) [EP-135, methyl hydrogen epoxysuccinate], the “ID50 (amount of inhibitor for 50% inhibition)” value is reported as 12.20 γ.
For `O=C(O)[C@H]1O[C@@H]1C(=O)Oc1ccccc1` (relative stereo) [EP-136, phenyl hydrogen epoxysuccinate], the “ID50 (amount of inhibitor for 50% inhibition)” value was 2.72 γ.
In the case of `CCCOC(=O)[C@H]1O[C@@H]1C(=O)O` (relative stereo) [EP-138, n-propyl potassium epoxysuccinate], the “ID50 (amount of inhibitor for 50% inhibition)” value is reported as 0.82 γ.
With `CC(C)OC(=O)[C@H]1O[C@@H]1C(=O)O` (relative stereo) [EP-139, i-propyl potassium epoxysuccinate] the “ID50 (amount of inhibitor for 50% inhibition)” value was 0.78 γ.
For `C=CCOC(=O)[C@H]1O[C@@H]1C(=O)O` (relative stereo) [EP-140, allyl potassium epoxysuccinate], the “ID50 (amount of inhibitor for 50% inhibition)” value was 0.92 γ.
For `C#CCOC(=O)[C@H]1O[C@@H]1C(=O)O` (relative stereo) [EP-141, propargyl potassium epoxysuccinate], the “ID50 (amount of inhibitor for 50% inhibition)” value was 1.45 γ.
